Experimental data as given in patent US20110052776A1, “CHOCOLATE COMPOSITIONS HAVING IMPROVED FLAVOUR CHARACTERISTICS” (priority 2007, published 2011).

Tests used:
expert panel members [1] = assay: Sucrose Equivalent Value (SEV) of pH 3.2 buffered sucrose solution, taste panel; type: in vivo; conditions: for SEV (%): 500 ppm of one potentiator in pH 3.2 buffered 5% sucrose solution; for effect on SEV of sucrose solutions, forms of 2,4-DHB: 500 ppm, pH 3.2 buffered solutions with 0%, 3%, 5%, 7% and 9% sucrose; for maximum sweetness attainable (SEV): pH 3.2 buffered 5% sucrose solution, dose response curve 0 to 1000 ppm; for SEV of solution containing 500 ppm 2,4-DHB and 500 ppm of a second sweetener potentiator: label = second potentiator, 5% sucrose solution
Experimental: (§1) One method of measuring the perceived sweetness of a solution is to match it with a stock sucrose solution of known concentration. In the present experiments, the compound of interest is added at a predetermined concentration to a pH 3.2 buffered solution containing 5% sucrose. A number of expert panel members then taste the solution and compare it to a battery of stock sucrose solutions ranging from 3% to 15% at increments of 1%. Each panel member decides which sucrose solution is equisweet with the solution containing the compound of interest. The mean value is then reported as the SEV. Results are reported to 1 decimal place.
In accordance with this methodology, 3-HB was added to a pH 3.2 buffered solution containing 5% sucrose to produce solutions containing from 0 to 1000 ppm 3-HB in 100 ppm increments. […] From FIG. 1 it is apparent that as the dosage of 3-HB increases so does the sweetness of the resultant solution. However the effect is non-linear with each incremental addition having a diminishing effect. The maximum sweetness attainable would appear to be about 7.9% SEV (based on a 5% sucrose solution).
The same methodology as described in Example 6 was repeated with 2,4-DHB in place of 3-HB, to produce the dose response curve for 2,4-DHB (FIG. 2). […] The maximum attainable sweetness would appear to be about 6.7% SEV (based on a 5% sucrose solution).
500 ppm of a sweetener potentiator was added to a pH 3.2 buffered solution containing 5% sucrose and the SEV of the resultant solution determined.
500 ppm of the sweetener potentiator then was added to a 5% sucrose solution containing 500 ppm 3-HB to produce a series of solutions. […] The use of 500 ppm of 3-HB alone results in an SEV of 6.9% whereas in all cases but two (2,4-DHB and 3,4-DHB) the addition of a second sweetener potentiator results in a little change or even a decrease in SEV. This is highly surprising considering that all of the potentiators are shown to have SEVs greater than 5%.
The methodology was repeated to produce a series of solutions containing 500 ppm 2,4-DHB and 500 ppm of a second sweetener potentiator.
500 ppm of 3-HB, 500 ppm of 2,4-DHB and 500 ppm of 3,4-dihydroxybenzoic acid (3,4-DHB) were added to a pH 3.2 buffered solution containing 5% sucrose and the SEV determined. The results are shown in FIG. 7 together with other combinations of 3-HB, 2,4-DHB and 3,4-DHB for comparison. The solution containing the combination of 3-HB and 2,4-DHB (hatched) has a much higher SEV (8.7%) than the combination of either 3,4-DHB and 3-HB (7.6%) or the combination of 3,4-DHB and 2,4-DHB (6.8%). The three-way combination of the embodiment (hatched) is better still with an SEV of 9.8%.
Buffered solutions of pH 3.2 were prepared containing 0%, 3%, 5%, 7% and 9% sucrose. 500 ppm of 2,4-DHB acid, 500 ppm of the sodium salt of 2,4-DHB and 500 ppm of the potassium salt of 2,4-DHB were added individually to each of the sucrose solutions. The SEV for each of the solutions was then determined.
500 ppm of 3-aminobenzoic acid and 500 ppm of 4-aminobenzoic acid were individually added to separate pH 3.2 buffered solutions containing 5% sucrose and the SEVs of the resultant solutions were determined. The SEV of 3-aminobenzoic acid was about 7%, i.e., increased the sweetness intensity of 5% sucrose to about 7%. The SEV of 4-aminobenzoic acid was about 5.5-6%, i.e., increased the sweetness intensity of 5% sucrose to about 5.5-6%.

[2] = cited from earlier work
panel member = assay: Sucrose reduction method versus 10% sucrose control, taste panel; type: in vivo; conditions: 1000 ppm used individually; control pH 3.2 10% sucrose
Experimental: An alternative method of measuring perceived sweetness is to determine how much sucrose can be replaced through the use of the compound of interest without any Perceived loss of sweetness. In the present experiments the control was a pH 3.2 buffered solution containing 10% sucrose. The compound of interest is added at a predetermined concentration to a number of sucrose solutions containing from 5% to 10% sucrose at increments of 0.5%. Each panel member tastes each of the solutions, compares it to the control sample and decides which solutions are equisweet. For example, if the 8% sucrose solution containing the compound of interest is equisweet with the control, then the sucrose reduction achieved by the compound of interest is 20%.
A series of sucrose solutions were prepared containing 3-HB and 2,4-DHB at a combined concentration of 1000 ppm. Each solution was evaluated using the sucrose reduction method described above to determine how much sucrose could be replaced without noticeable loss of sweetness.
A series of sucrose solutions were prepared containing equal quantities of 3-HB and 2,4-DHB, at a combined concentration of 200, 400, 600, 800 and 1000 ppm. Each solution was evaluated using the sucrose reduction method described in Example 8 above to determine how much sucrose could be replaced without noticeable loss of sweetness.

expert panel members [3] = assay: SEV of non-sucrose sweetener solutions (SEV about 5%) after addition of potentiators; type: in vivo; conditions: 500 ppm 3-HB alone versus with 500 ppm 2,4-DHB; pH 3.2
Experimental: as §1
The SEV of each sweetener solution was then evaluated after the addition 500 ppm of 3-HB, the addition of 500 ppm of 2,4-DHB and the addition of both 500 ppm 3-HB and 2,4-DHB.

With `O=C(O)c1ccc(O)c(O)c1O` [2,3,4-trihydroxybenzoic acid (2,3,4-THB), 2,3,4-trihydroxybenzoic acid] the “SEV (%)” value (expert panel members [1]) was 5.4%.

In the case of `O=C(O)c1cccc(O)c1O` [2,3-dihydroxybenzoic acid (2,3-DHB), 2,3-dihydroxybenzoic acid], the “SEV (%)” value (expert panel members [1]) is reported as 6.3%.

With `O=C(O)c1c(O)cc(O)cc1O` [2,4,6-trihydroxybenzoic acid (2,4,6-THB), 2,4,6-trihydroxybenzoic acid] the “SEV (%)” value (expert panel members [1]) was 5.4%.

For `O=C(O)c1ccc(O)cc1O` [2,4-DHB, 2,4-dihydroxybenzoic acid], the “effect on the sweetness intensity of both sucralose and aspartame” value ([2]; FIGS. 1 and 2 and Tables 1 and 2 of U.S. Pat. No. 6,461,658) is listed as “slightly inhibitory effect”, the “length of time during which sucralose sweetness is perceived” value ([2]; U.S. Pat. No. 6,461,658) is listed as “significantly reducing” and the “effect on sweetness of a 5% sucrose solution” value ([2]; addition of 0.2% 2,4-DHB, Canadian Patent No. 1208966) is listed as “increase in sweetness”. The sucrose reduction (panel member) was 15%, the SEV (expert panel members [1]; 400 ppm in pH 3.2 buffered 5% sucrose solution) was 6.5% and the “SEV (%)” value (expert panel members [1]) was 6.5%. The “effect on SEV of sucrose solutions, forms of 2,4-DHB” value (“effect on SEV of sucrose solutions” below) (expert panel members [1]) was “enhances the sweetness of the sucrose solution in every case”, the SEV (expert panel members [1]; 1000 ppm in pH 3.2 buffered 5% sucrose solution) was 6.7% and the “maximum sweetness attainable (SEV)” value (expert panel members [1]) was “about 6.7 % SEV”.

In the case of `O=C(O)c1cc(O)ccc1O` [2,5-dihydroxybenzoic acid (2,5-DHB), 2,5-dihydroxybenzoic acid], the “SEV (%)” value (expert panel members [1]) is reported as 5.3%.

In the case of `O=C(O)c1c(O)cccc1O` [2,6-dihydroxybenzoic acid (2,6-DHB), 2,6-dihydroxybenzoic acid], the “SEV (%)” value (expert panel members [1]) is reported as 5.3%.

In the case of `O=C(O)c1ccccc1O` [2-hydroxybenzoic acid (2-HB), 2-hydroxybenzoic acid], the “SEV (%)” value (expert panel members [1]) is reported as 5.6% and the “SEV of solution containing 500 ppm 2,4-DHB and 500 ppm of a second sweetener potentiator” value (expert panel members [1]) is reported as 6.3%.

For `O=C(O)c1cc(O)c(O)c(O)c1` [3,4,5-tryhydroxybenzoic acid (3,4,5-THB), 3,4,5-tryhydroxybenzoic acid], the “SEV (%)” value (expert panel members [1]) was 5.1%.

For `O=C(O)c1ccc(O)c(O)c1` [3,4-dihydroxybenzoic acid (3,4-DHB), 3,4-dihydroxybenzoic acid], the “SEV (%)” value (expert panel members [1]) was 6.4%.

With `O=C(O)c1cc(O)cc(O)c1` [3,5-dihydroxybenzoic acid (3,5-DHB), 3,5-dihydroxybenzoic acid] the “SEV (%)” value (expert panel members [1]) was 5.3%.

For `Nc1cccc(C(=O)O)c1` [3-aminobenzoic acid], the “SEV (%)” value (expert panel members [1]) was “about 7%”.

For `Nc1ccc(C(=O)O)cc1` [4-aminobenzoic acid], the “SEV (%)” value (expert panel members [1]) was 5.5-6%.

For `O=C(O)c1ccc(O)cc1` [4-hydroxybenzoic acid (4-HB), 4-hydroxybenzoic acid], the “SEV (%)” value (expert panel members [1]) was 5.2% and the “SEV of solution containing 500 ppm 2,4-DHB and 500 ppm of a second sweetener potentiator” value (expert panel members [1]) was 6.2%.

With `O=C(O)c1cccc(O)c1` [Example 3-HB, 3-hydroxybenzoic acid] the sucrose reduction (panel member) was 25%, the “effect on sweetness of saccharin solution” value (expert panel members [3]) was “enhances the sweetness to a greater degree alone than in combination with 2,4-DHB” and the “SEV (%)” value (expert panel members [1]) was 6.9%. For the same compound, the “maximum sweetness attainable (SEV)” value (expert panel members [1]) was “about 7.9 % SEV”.

With `O=C([O-])c1ccc(O)cc1O.[K+]` [potassium salt of 2,4-DHB] the “effect on SEV of sucrose solutions” value (expert panel members [1]) was “enhances the sweetness of the sucrose solution in every case”.

For `O=C([O-])c1ccc(O)cc1O.[Na+]` [sodium salt of 2,4-DHB], the “effect on SEV of sucrose solutions” value (expert panel members [1]) was “enhances the sweetness of the sucrose solution in every case”.
